Measurements from paper PMC10135050, “Neutralizing Carbapenem Resistance by Co-Administering Meropenem with Novel β-Lactam-Metallo-β-Lactamase Inhibitors” (Antibiotics, 2023).
Like-named read-outs stand apart in the source and are kept apart here.

Legend:
[1] = Plasma drug concentrations in the in vivo efficacy study; details: male, mouse, 100 mg/kg IP every two hours, infected BALB/c mice
Protocol: A murine thigh infection model described by Michail et al. was performed with minor modifications. Male Bragg inbred albino c-strain (BALB/c) mice weighing 20–25 g (n = 90) were used in this study. Each of the three groups constituted n = 30 mice, with n = 6 mice receiving treatment every two hours. Prior to infection, mice were IP treated with 150 mg/kg cyclophosphamide on day one and 100 mg/kg on day four of the trial. This was performed to induce neutropenia in the mice. Neutropenia was confirmed by a neutrophil count of <100/mm^3. On day five of the trial, 0.1 mL inoculum containing 10^6–10^8 cfu/mL of K. pneumoniae NDM were IM injected into the right thigh of the mice to initiate infection. Meropenem monotherapy, BP2 + meropenem combination therapy, or normal saline was administered every two hours in an eight-hour treatment period. Mice were euthanized by isoflurane overdose at 2 h, 4 h, 6 h and 8 h post dosing. The right thigh muscle was then aseptically removed and homogenized in 5 mL PBS. Homogenates were spread onto Mueller–Hinton agar and MacConkey agar plates, followed by incubation at 35 °C for 24 h and enumeration of the cfu/mL.
A Shimadzu Nexera Series (Shimadzu Corporation, Kyoto, Japan) liquid chromatography system was coupled with Shimadzu LCMS-8050 tandem mass spectrometer (Shimadzu, Kyoto, Japan). The chromatographic separation was achieved using a Shim-Pack Velox SP-C18 column (100 mm × 2.1 mm, 2.7 µm particle size) with a gradient mobile phase comprised of Millipore water (0.1% v/v trifluoroacetic acid) (A) and Acetonitrile (0.1% v/v trifluoroacetic acid) (B). The gradient method started from 5 to 95% B in 8 min, then held at 95% B for up to 12 min; thereafter, it was brought back to 5% B at 12.1 min. The column was equilibration time was 2.9 min with a flow rate of 0.4 mL min^−1 and the column oven temperature at 40 °C. The injection volume was 25 µL, and the total run time of the method was 15 min. Quantitative and qualitative studies were conducted using MRM mode via an ESI interface, with the following source parameters: nitrogen nebulizer gas flow 3 L/min; heat gas 10 L/min and interface temperature of 300 °C. The precursor and product ions optimized were m/z 813.2→330.0 for BP2, m/z 384.50→68.25 for meropenem and m/z 350.50→304.40 for Ampicillin (IS). Results were analyzed using LabSolutions Insight LCMS. All data are expressed as a mean ± SD.
Figure 6 Plasma BP2 and meropenem concentrations over the eight-hour treatment period. BALB/c mice were infected intramuscularly (IM) in the right thigh with 10^6–10^8 K. pneumoniae NDM cfu/mL. Treatment was initiated two hours post infection with either S, M, or BP2. Four treatment doses were administered via intraperitoneal (IP) injection every two hours. Data are presented as a mean ± SD (n = 6). Meropenem-only (red triangle)—animals treated with meropenem only, Meropenem with BP2 (red circles)—meropenem concentration when animals were treated with the BP2 combination. BP2 with meropenem (green square)—concentration of BP2 when animals were treated with the meropenem combination.

[2] = system: Enterobacter cloacae BM 5 (IMP-1); experiment: MIC, broth microdilution and checkerboard assay; format: cell-based
Protocol: (§1) The Minimum Inhibitory Concentration (MIC) of meropenem BP2 was determined utilizing the broth microdilution assay, as described by the Clinical and Laboratory Standards Institute (CLSI) antimicrobial susceptibility guidelines. The mono-therapeutic effect of each antibiotic and MBLI was evaluated across a panel of MBL-producing Enterobacterales.
(§2) The drug susceptibility profile of meropenem in combination with BP2 was studied using the checkerboard assay. This assay was used to ascertain the effect of two drugs on antimicrobial resistance targeting CRE strains. The assay was performed according to the protocol described previously and was under CLSI antimicrobial susceptibility guidelines. Briefly, twofold dilutions of meropenem with each chelator were made in Cation-adjusted Mueller Hinton Broth (CAMHB) in a 96-well microtiter plate. A 0.5 McFarland-standardized bacterial inoculum was added to each well to obtain a final volume of 100 µL per well. Thereafter, plates were incubated at 37 °C for 18 h under aerobic conditions. The checkerboard assays were performed in triplicate. The MIC was determined as the lowest concentration at which no visible growth was present. The fractional inhibitory concentration index (FICI) was calculated for each combination according to the equation FICI = FICa (MIC of drug A in combination/MIC of drug A alone) + FICb (MIC of drug B in combination/MIC of drug B alone). The FICI was interpreted as follows: synergy, FICI ≤ 0.5; additive 0.5–1; indifference, […] FICI < 4; and antagonism, FICI ≥ 4 [61].

[3] = system: Escherichia coli DIH (VIM-19); experiment: MIC, broth microdilution and checkerboard assay; format: cell-based
Protocol: as §1, §2

[4] = system: Providencia stuartii PSTU (NDM-1); experiment: MIC, broth microdilution and checkerboard assay; format: cell-based
Protocol: as §1, §2

[5] = system: Enterobacter cloacae TWA (IMP-8); experiment: MIC, broth microdilution and checkerboard assay; format: cell-based
Protocol: as §1, §2

[6] = system: Enterobacter cloacae IR 386 (NDM-1); experiment: MIC, broth microdilution and checkerboard assay; format: cell-based
Protocol: as §1, §2

[7] = system: Escherichia coli JAP (IMP-1); experiment: MIC, broth microdilution and checkerboard assay; format: cell-based
Protocol: as §1, §2

[8] = system: Klebsiella pneumoniae 6852 (IMP-1); experiment: MIC, broth microdilution and checkerboard assay; format: cell-based
Protocol: as §1, §2

[9] = system: Escherichia coli FEK (NDM-4); experiment: MIC, broth microdilution and checkerboard assay; format: cell-based
Protocol: as §1, §2

[10] = Single-dose pharmacokinetic experiment; format: in vivo; details: for Time of peak concentration (Cmax) after drug administration: single dose, plasma
Protocol: In order to evaluate BP2’s potential to act synergetically with antibacterial agents such as meropenem in vivo, we next performed a single-dose pharmacokinetic experiment to ensure an appropriate dosing schedule for achieving a safe and therapeutic concentration of BP2 in plasma. […] Constant concentrations were then reached after two hours. A plasma concentration of 1.93 µg/L was obtained with a dose of 10 mg/kg.b.w. This was far below the cytotoxicity concentrations seen in the cell viability assays, advocating for the safe increase in the treatment dose to 100 mg/kg.b.w, which allowed us to reach therapeutic concentrations (Figure 6) in plasma without the possibility of toxicity. In vivo efficacy studies were undertaken to assess the potency of BP2 in a murine infection model. This five-day animal trial was initiated by immune-suppressing the mice with cyclophosphamide to allow the progression of infection and allow BP2 + meropenem treatment to be studied over eight hours on day five of the trial. In addition, it excludes the effects of the innate immune response as a potential variable. This is important since many carbapenem-resistant infections are acquired as secondary infections in immune-suppressed hosts. The mice were successfully infected with Klebsiella pneumoniae NDM, evidenced by visible inflammation of the localized area; this correlated with the cfu/thigh data expressed (Tables S1–S3). Three treatment regimens of S (saline only), M (meropenem only), and BP2 combination therapy (BP2 + meropenem) were used to randomly categorize mice.
A Shimadzu Nexera Series (Shimadzu Corporation, Kyoto, Japan) liquid chromatography system was coupled with Shimadzu LCMS-8050 tandem mass spectrometer (Shimadzu, Kyoto, Japan). […] Quantitative and qualitative studies were conducted using MRM mode via an ESI interface, with the following source parameters: nitrogen nebulizer gas flow 3 L/min; heat gas 10 L/min and interface temperature of 300 °C. […] Results were analyzed using LabSolutions Insight LCMS. All data are expressed as a mean ± SD.

`C[C@@H](O)[C@H]1C(=O)N2C(C(=O)O)=C(S[C@@H]3CN[C@H](C(=O)N(C)C)C3)[C@H](C)[C@H]12` [Meropenem] showed a concentration at 2 h [1] of 7060 ng/mL, a concentration at 4 h [1] of 27500 ng/mL and a concentration at 6 h [1] of 14900 ng/mL. For the same compound, the concentration at 8 h [1] was 8840 ng/mL, the MIC ([2]; read-out: MIC MEM Alone) was over 32 µg/mL and the MIC ([3]; E. coli DIH VIM-19, alone, read-out: MIC MEM Alone) was over 32 µg/mL. For the same compound, the MIC ([4]; P. stuartii PSTU NDM-1, alone, read-out: MIC MEM Alone) was 32 µg/mL, the MIC ([5]; E. cloacae TWA IMP-8, alone, read-out: MIC MEM Alone) was 0.125 µg/mL and the MIC ([6]; E. cloacae IR 386 NDM-1, alone, read-out: MIC MEM Alone) was 32 µg/mL. The MIC ([7]; E. coli JAP IMP-1, alone, read-out: MIC MEM Alone) was 8 µg/mL, the MIC ([8]; K. pneumoniae 6852 IMP-1, alone, read-out: MIC MEM Alone) was over 32 µg/mL and the MIC ([9]; E. coli FEK NDM-4, alone, read-out: MIC MEM Alone) was over 32 µg/mL. For the same compound, the “Time of peak concentration (Cmax) after drug administration” value [10] was 15 min.
`CON=C(C(=O)NC1C(=O)N2C(C(=O)O)=C(COC(C)=O)CSC12)c1csc(NC(=O)CC(C(=O)OC)N2CCN(CC(=O)O)CCN(CC(=O)O)CC2)n1` (stereo in doubt) [BP2] gave a concentration at 2 h [1] of 2670 ng/mL, a concentration at 4 h [1] of 6970 ng/mL and a concentration at 6 h [1] of 4430 ng/mL. The concentration at 8 h [1] was 3490 ng/mL, the MIC ([2]; read-out: MIC BP2 Alone) was over 256 µg/mL and the MIC ([3]; read-out: MIC BP2 Alone) was over 256 µg/mL. It also gave an MIC ([4]; read-out: MIC BP2 Alone) of over 256 µg/mL, an MIC ([5]; read-out: MIC BP2 Alone) of over 256 µg/mL and an MIC ([6]; read-out: MIC BP2 Alone) of over 256 µg/mL. For the same compound, the MIC ([7]; read-out: MIC BP2 Alone) was over 256 µg/mL, the MIC ([8]; read-out: MIC BP2 Alone) was over 256 µg/mL and the MIC ([9]; read-out: MIC BP2 Alone) was over 256 µg/mL. The Plasma concentration ([10]; dose of 10 mg/kg.b.w) was 1.93 ng/mL and the “Time of peak concentration (Cmax) after drug administration” value [10] was 15 min.
